Results from ChEMBL document CHEMBL1156829 (Proc Natl Acad Sci U S A, 2008).

Columns and labels:
[1] = NOVARTIS: Cytotoxicity against human hepatocellular carcinoma cell line (Huh7); format: toxicity, cell-based, Huh-7; details: Huh7 cells (hepatocellular carcinoma cell line)
Plasmodium falciparum [2] = test: NOVARTIS: Inhibition of Plasmodium falciparum 3D7 (drug-susceptible) proliferation in erythrocyte-based infection assay; format: functional, organism-based; details: Plasmodium falciparum, 3D7
Plasmodium falciparum [3] = test: NOVARTIS: Inhibition of Plasmodium falciparum W2 (drug-resistant) proliferation in erythrocyte-based infection assay; format: functional, organism-based; details: Plasmodium falciparum, W2; read-out: EC50

Structure (SMILES) | CC50 [1] | EC50 (Plasmodium falciparum [2]) | EC50 (Plasmodium falciparum [3])
CN1C=CC=CC1=CC=C1C=Nc2ccccc21 | 20.9 µM | 0.236 µM | 0.232 µM
COc1cccc(/C=C2\SC(=Nc3ccccc3)NC2=O)c1OC | > 100 µM | 0.521 µM | 1.09 µM
CCOC(=O)c1cnc2ccc(C(C)C)cc2c1O | > 100 µM | 1.15 µM | 1.14 µM
NN1C(=O)NC(=O)C1Nc1cccc([N+](=O)[O-])c1 (stereo not given) | > 12.7 µM | 0.976 µM | 0.139 µM
COc1cccc(C(=O)NC(c2ccccc2OC)c2cc(Cl)c3cccnc3c2O)c1 (stereo not given) | > 100 µM | 1.2 µM | 1.15 µM
CCCCCn1c(C)[n+](CCCC)c2cc(Cl)c(Cl)cc21 | > 100 µM | 1.24 µM | 1.16 µM
O=C(O)c1cccc(NC(=O)c2ccc(N3C(=O)c4ccc(C(=O)Nc5cccc(C(=O)O)c5)cc4C3=O)cc2)c1 | > 100 µM | > 12.5 µM | 1.14 µM
CCC(CO)NCC(O)Cn1c2ccc(Br)cc2c2cc(Br)ccc21 (stereo not given) | 11.2 µM | 0.526 µM | 0.126 µM
CN1CCC(NCCc2ccc(Cl)cc2)CC1 | 18.9 µM | 0.909 µM | 0.21 µM
CCC(=O)N1CCc2cc(Br)cc(S(=O)(=O)N3CC(C)CC(C)C3)c21 (stereo not given) | > 100 µM | 1.97 µM | 1.16 µM
OC(CNC1CCCCC1)Cn1c2ccccc2c2ccccc21 (stereo not given) | 18.1 µM | 0.483 µM | 0.198 µM
Cc1cccc(OCC(=O)Nc2cccc(NC(=O)COc3cccc(C)c3)n2)c1 | > 100 µM | 0.237 µM | 1.16 µM
O=C(NC1CC1)c1ccc(N2CCC(Cc3ccccc3)CC2)c([N+](=O)[O-])c1 | 53.7 µM | 0.212 µM | 0.619 µM
COc1ccc(C=NNc2cc(C)nc3ccccc23)cc1 | 18.9 µM | 0.228 µM | 0.207 µM
CC1CCN(S(=O)(=O)c2ccc(C(=O)NCc3ccco3)cc2)CC1 | > 100 µM | 0.894 µM | 1.09 µM
O=C(C1CC1)N1CCc2cc(Br)cc(S(=O)(=O)N3CCCC3)c21 | > 100 µM | 0.929 µM | 1.12 µM
CCc1ccc(NC(=O)COC(=O)c2cccs2)cc1 | > 100 µM | 4.64 µM | 1.11 µM
Fc1ccc(CCNc2ncnc3c2[nH]c2ccccc23)cc1 | 12 µM | 0.257 µM | 0.133 µM
CC(C)(C)C(=O)NCCNc1ccc([N+](=O)[O-])cc1C(F)(F)F | > 100 µM | 2.26 µM | 1.11 µM
CCCCCCCCCCOC(=O)Cn1c(C)[n+](C)c2ccccc21 | 58.1 µM | > 12.5 µM | 0.644 µM
O=C(NCCCN1CCOCC1)c1c[nH]c2ccc(S(=O)(=O)N3CCc4ccccc43)cc2c1=O | > 100 µM | 0.61 µM | 1.11 µM
CC(=O)N(C1=C(N2CCCC2)C(=O)c2ccccc2C1=O)c1cccc(F)c1 | 29 µM | 0.406 µM | 0.323 µM
CCC(=O)Nc1ccc2nc(SCC(=O)Nc3ccc(C(C)=O)cc3)sc2c1 | > 100 µM | > 12.5 µM | 1.11 µM
COCCN(Cc1cc2ccc(F)cc2nc1N1CCCCCC1)C(=O)c1ccoc1 | > 100 µM | 5.2 µM | 1.11 µM
COc1ccc(C2C(C(C)=O)=C(O)C(=O)N2CCCn2ccnc2)c(OC)c1 (stereo not given) | > 100 µM | 4.48 µM | 1.11 µM
Nc1nonc1-n1nnc(C(=O)NN=Cc2cc(Br)cs2)c1-c1ccccc1 | > 100 µM | 0.692 µM | 1.1 µM
COc1ccc(S(=O)(=O)N2CCC(c3nnc(-c4ccccc4OC)o3)CC2)cc1 | > 100 µM | 2.31 µM | 1.1 µM
CCOC(=O)N1CCC(n2c(SCC(=O)N3CCCCCC3)nc3ccccc3c2=O)CC1 | > 100 µM | 7.34 µM | 1.09 µM

Structure (SMILES) | CC50 [1] | EC50 (Plasmodium falciparum [2]) | EC50 (Plasmodium falciparum [3])
Cc1ccc(-c2c[n+](CC(=O)c3ccccc3Cl)c3n2CCC3)cc1 | > 95.9 µM | 1.01 µM | 1.11 µM
Nc1ccc(C(=O)NN=Cc2cccc([N+](=O)[O-])c2)cc1 | > 10 µM | 0.298 µM | 0.112 µM
CCOC(=O)c1c(C)n(-c2ccccc2)c2ccc(OC(=O)c3ccco3)cc12 | > 100 µM | 0.607 µM | 1.14 µM
CC(C)CN1C(=O)c2ccccc2C(C(=O)Nc2ccc(CN3CCC(C)CC3)cc2)C1c1cccs1 (stereo not given) | > 100 µM | 2.05 µM | 1.13 µM
Cc1cccc(-c2cc(C(=O)NC3CCN(Cc4ccccc4)CC3)cc(-n3cnnn3)c2)c1 | 50.1 µM | 0.372 µM | 0.57 µM
Cc1cccc(OC(C)C(=O)N2CCc3ccccc32)c1 (stereo not given) | > 100 µM | 3.48 µM | 1.14 µM
Cc1n(N)c2ccccc2[n+]1CC(=O)c1ccc([N+](=O)[O-])cc1 | > 100 µM | 1.95 µM | 1.14 µM
c1ccc(CCNC2CCN(Cc3ccccc3)CC2)cc1 | 43.5 µM | 1.47 µM | 0.5 µM
O=[N+]([O-])c1cc(Br)c(Nc2ccccc2)c([N+](=O)[O-])c1 | 6.6 µM | 0.167 µM | 0.0758 µM
COc1cc2ccccc2cc1C(=O)NCCOC12CC3CC(CC(C3)C1)C2 | > 100 µM | 3.5 µM | 1.15 µM
Cc1ccc(-c2c3c4n(c(-c5ccc(Cl)cc5)cn4c2C(=O)Nc2ccccc2Cl)CCCC3)cc1 | > 100 µM | 0.269 µM | 1.16 µM
Cc1ccccc1Cn1c(C)c[n+]2ccsc12 | > 10 µM | 1.28 µM | 0.113 µM
COc1ccc(C2CC(c3cccs3)=NN2C(=O)CSc2nnc(CNC(=O)c3cccs3)n2-c2cc(C)ccc2C)cc1 (stereo not given) | > 100 µM | > 8.55 µM | 1.14 µM
O=C(c1ccccc1)C1NC1c1ccc(Br)cc1 (stereo not given) | > 100 µM | 0.989 µM | 1.12 µM
O=C(NC1CC1)C1CCN(c2cccc3c2C(=O)N(Cc2cccc(C(F)(F)F)c2)C3=O)CC1 | > 100 µM | 2.17 µM | 1.11 µM
CCCc1c(CC)c(=N)c2ccccc2n1C | > 100 µM | 0.762 µM | 1.14 µM
CCCCN(CCCC)S(=O)(=O)c1cc(Br)cc2c1N(C(C)=O)CC2 | > 100 µM | 3.29 µM | 1.09 µM
O=C1CC(c2ccccc2)CC2=C1C(c1ccccc1[N+](=O)[O-])Nc1ccccc1N2 (stereo not given) | > 100 µM | 3.47 µM | 1.11 µM
COc1ccccc1C(=O)NC1CCN(CC(O)CN(Cc2ccccc2)S(=O)(=O)c2ccccc2)C1 (stereo not given) | > 10 µM | 0.215 µM | 0.115 µM
CC1=C(C(=O)OC(C)C)C(c2ccc([N+](=O)[O-])cc2)C2=C(CCCC2=O)N1 (stereo not given) | > 100 µM | 6.23 µM | 1.14 µM
CCOC(=O)c1cnn(-c2ccnc3cc(Cl)ccc23)c1CNC(C)c1ccco1 (stereo not given) | 38.9 µM | 0.795 µM | 0.448 µM
COc1ccc(C2C(C(=O)Nc3cccc(C(F)(F)F)c3)c3ccccc3C(=O)N2C2CCCCC2)cc1 (stereo not given) | > 100 µM | 1.83 µM | 1.13 µM
CC(C)(C)c1ccc(C(=O)C[n+]2cc(-c3ccccc3)n3c2CCC3)cc1 | 43 µM | 1.14 µM | 0.47 µM
O=C(NC1CCN(CC(O)CN(Cc2ccccc2)S(=O)(=O)c2ccccc2)C1)C1CCCCC1 (stereo not given) | > 10 µM | 0.185 µM | 0.116 µM
S=C(NCc1ccco1)NN=CC=NNC(=S)NCc1ccco1 | > 10 µM | 0.121 µM | 0.113 µM
CN1CCc2c(sc3c2C(=O)NC(c2ccc(O)cc2)N3)C1 (stereo not given) | 33.5 µM | 0.755 µM | 0.378 µM
CCOC(=O)c1sc(NC(=O)C(C)Sc2nnc(CNC(=O)c3cccc(F)c3)n2-c2cccc(C)c2)c(C(=O)OCC)c1C (stereo not given) | > 100 µM | > 12.5 µM | 1.1 µM
